Reference: patent US7988944B2, “Peroxide decomposition catalyst” (Sumitomo Chemical Company, Limited, priority 2005, dated 2011)

How the values were obtained:
[1] = Hydrogen peroxide decomposition test in the presence of poly(sodium 4-styrenesulfonate); conditions: 80° C.; for V(O2), generated oxygen volume: 20 minutes, pH4.0 tartrate buffer/ethylene glycol, 2.28 mmol H2O2, blank corrected, 0° C. and 101325 Pa; for N(O2), mole number of oxygen molecule generated per 20 minutes: oxygen regarded as ideal gas
Protocol: To a mixture of 8.41 μmol (per one metal atom) of a catalyst and 21.1 mg of poly(sodium 4-styrenesulfonate) (product commercially available from Aldrich, weight average molecular weight: about 70,000) are added 1.00 ml of a tartaric acid/sodium tartrate buffer (pH4.0) and 1.00 ml of ethylene glycol. After this catalyst mixture is stirred at 80° C. for 5 minutes, 0.20 ml of an 11.4 mol/l aqueous hydrogen peroxide solution is added, and the mixture is stirred at 80° C. for 20 minutes. A volume of oxygen generated thereupon is measured with a gas burette, and an amount of decomposed hydrogen peroxide is calculated. Thereafter, this reaction solution is diluted and filtrated, and the filtrate is measured by gel permeation chromatography (GPC), thereby, a weight average molecular weight of poly(sodium 4-styrenesulfonate) after a test is obtained. The GPC analysis condition will be shown below. Column: TSKgel α-M (13 μm, 7.8 mmφ×30 cm) manufactured by Tosoh Corporation, column temperature: 40° C., mobile phase: 50 mmol/l aqueous ammonium acetate solution: CH3CN=7:3 (v/v), flow rate: 0.6 ml/min, detector: RI, injection amount: 50 μl. A weight average molecular weight was obtained as a value in terms of polyethylene oxide. The A value is obtained by the (equation 1), and the B value is obtained by the (equation 2).
Mn-bbpr (4.90 mg, 8.41 μmol (per one metal atom)), and poly(sodium 4-sutyrenesulfonate)(21.1 mg (product commercially available from Aldrich, weight average molecular weight: about 70,000)) were weighed in a two-necked flask (25 ml), and a tartaric acid/sodium tartrate buffer (1.00 ml (prepared from 0.20 mol/l tartaric acid aqueous solution and 0.10 mol/l sodium tartrate aqueous solution, pH4.0)) and ethylene glycol (1.00 ml) as a solvent were added thereto, followed by stirring. This was used as a catalyst mixed solution.
Septum was attached to one of inlets of the two-necked flask containing this catalyst mixed solution, and the other inlet was collected to a gas burette. This flask was stirred at 80° C. for 5 minutes, a hydrogen peroxide aqueous solution (11.4 mol/l, 0.20 ml (2.28 mmol)) was added via a syringe, and a hydrogen peroxide decomposition reaction was performed at 80° C. for 20 minutes. Generated oxygen was measured with a gas burette, and decomposed hydrogen peroxide was quantitated. An amount of generated oxygen was corrected based on the following blank test. Thereafter, the reaction solution was diluted with a water/acetonitrile mixed solution (water:acetonitrile=7:3 (v/v)) to a solution amount of 10.0 ml, and this solution was filtered with a syringe filter. This filtrate was GPC-measured, and a weight average molecular weight of poly (sodium 4-sutyrenesulfonate) after a test was obtained.
Poly(sodium 4-styrenesulfonate) after the hydrogen peroxide decomposition test was GPC-analyzed. The analyzing conditions are shown below. Column: TSKgel α-M (13 μm, 7.8 mmφ×30 cm) manufactured by Tosoh Corporation, column temperature: 40° C., mobile phase: 50 mmol/l ammonium acetate aqueous solution: CH3CN=7:3 (v/v), flow rate: 0.6 ml/min, detector: RI, in injection amount: 50 μl. A weight average molecular weight was obtained as a value in terms of polyethylene oxide.
An amount of decomposed hydrogen peroxide was obtained from a volume of oxygen generated in the hydrogen peroxide decomposition test.

[2] = Solubility test of catalyst in DMF; format: physicochemical; conditions: for Weight of peroxide decomposition catalyst residue which remained undissolved in DMF: about 20 mg catalyst, DMF 5.00 ml in total, residue on filter paper dried and weighed; for Solubility: catalyst 20.0±0.1 mg in 5.0 ml DMF, equation 3; for solubility (in words): from Table 1, DMF
Protocol: Herein, as an index of solubility in a peroxide decomposition catalyst, solubility of a peroxide decomposition catalyst (20.0±0.1 mg) in a constant amount (5.0 ml) of dimethylformamide (hereinafter abbreviated as DMF) can be used. The solubility as used herein is represented by the following (equation 3).
First, a filter paper (No 5B φ21 m/m) for Kiriyama funnel was dried (100° C., under 200 pa reduced pressure, 6 h), and this was weighed. Then, a peroxide decomposition catalyst (20.0±0.1 mg) and DMF (2.00 ml) were weighed in a 8 ml glass sample tube containing a stirrer, and this was stirred with a magnetic stirrer for 5 minutes. This mixture was transferred with a 2 ml pipette to a glass Kiriyama funnel (φ21 mm) in which the dried filter paper was spread, and this was suction-filtered. The sample tube, the stirrer and the pipette which were used, were washed with DMF several times (total amount 3.00 ml), and the attached catalyst and DMF washing solution were transferred to the Kiriyama funnel, and these were suction-filtered together. Thereafter, the residue on the filter paper, and the filter paper together with the Kiriyama funnel were dried (100° C., under 200 pa reduced pressure, 24 h) in a vacuum oven. After drying, the filter paper, and the residue on the filter paper were weighed, and a dry filter paper weight before filtration was subtracted from this weight to obtain a weight of the peroxide decomposition catalyst residue which remained undissolved in DMF. From this, solubility indicated by the (equation 3) was calculated.

CC(C)(C)c1ccc2c(c1)C1=Nc3c4cc(C(C)(C)C)ccc4c4[n]3[Fe][n]3c(c5ccc(C(C)(C)C)cc5c3=NC3=NC(=N4)c4cc(C(C)(C)C)ccc43)=NC2=N1 [Fe-pcy (^tBu)]
V(O2), generated oxygen volume [1]: 1.40 mL | N(O2), mole number of oxygen molecule generated per 20 minutes [1]: 0.0625 mmol | Weight of peroxide decomposition catalyst residue which remained undissolved in DMF [2]: 0.03 mg | Solubility [2]: 99.8% | solubility (in words) [2]: high solubility

O.O.[Na+].[Na+].[O]=[W](=[O])([O-])[O-] [Sodium tungstate dihydrate]
Weight of peroxide decomposition catalyst residue which remained undissolved in DMF [2]: 16.5 mg | Solubility [2]: 17.8% | solubility (in words) [2]: low solubility

[Co+2].c1ccc2c(c1)-c1nc-2nc2[n-]c(nc3nc(nc4[n-]c(n1)c1ccccc41)-c1ccccc1-3)c1ccccc21 [Cobalt phthalocyanine, cobalt phthalocyanine]
V(O2), generated oxygen volume [1]: 4.9 mL | N(O2), mole number of oxygen molecule generated per 20 minutes [1]: 0.219 mmol | Weight of peroxide decomposition catalyst residue which remained undissolved in DMF [2]: 17.5 mg | Solubility [2]: 12.9% | solubility (in words) [2]: low solubility

[Cu+2].c1ccc2c(c1)-c1nc-2nc2[n-]c(nc3nc(nc4[n-]c(n1)c1ccccc41)-c1ccccc1-3)c1ccccc21 [Copper phthalocyanine, copper phthalocyanine]
V(O2), generated oxygen volume [1]: 0.00 mL | N(O2), mole number of oxygen molecule generated per 20 minutes [1]: 0.00 mmol | Weight of peroxide decomposition catalyst residue which remained undissolved in DMF [2]: 17.3 mg | Solubility [2]: 13.1% | solubility (in words) [2]: low solubility

[Fe+2].c1ccc2c(c1)-c1nc-2nc2[n-]c(nc3nc(nc4[n-]c(n1)c1ccccc41)-c1ccccc1-3)c1ccccc21 [Iron phthalocyanine, iron phthalocyanine]
V(O2), generated oxygen volume [1]: 14.33 mL | N(O2), mole number of oxygen molecule generated per 20 minutes [1]: 0.64 mmol | Weight of peroxide decomposition catalyst residue which remained undissolved in DMF [2]: 17.9 mg | Solubility [2]: 11.0% | solubility (in words) [2]: low solubility
